Data reported in US20090226427A1, “NOVEL PHARMACEUTICAL COMPOSITIONS FOR MODULATING ANGIOGENESIS” (priority 1999, published 2009).

Columns and labels:
[1] = tested on: endothelial cells; test: sandwich Matrigel model of endothelial tube formation; assay type: cell-based
Description: Indeed, while endothelial cells culture leads to pavimentous organization when plated on dishes (FIG. 1A), endothelial cells progressively form tubes when cultured within gels of collagen, fibrin or Matrigel®. Accordingly, in the “3-D model”, endothelial cells are mixed to the matrix before gelification and tube-like structures are obtained after 48-72 hours (FIG. 1B); this model, however, reduces the efficiency of transfection. In the “sandwich model”, cells are first cultured to confluence on a first layer of matrix, and are then covered by a second matrix layer; cells are easily transfected in the interval preceding the addition of the upper layer. The latter technique allows the formation of endothelial tubes in 3-6 hours; the tube structures are mature 12 hours after induction (FIG. 1C) and then start to regress.
Of note, when endothelial cells were transfected with an irrelevant construct (β-galactosidase-encoding), no change in the rate and extent of tube formation was observed.

[2] = tested on: caveolin-eNOS complex; test: caveolin/eNOS co-immunoprecipitation, VEGF-exposed HUVEC; assay type: cell-based, human; settings: for effect on VEGF-induced caveolin/eNOS dissociation: geldanamycin, BAPTA
Description: (1998) J. Biol. Chem. 273, 30249-30254) and plated at 5×10^5 cells/ml. […] Immunoprecipitation, Immunoblotting, and Kinase Assay was performed as follows: EC were homogenized in a buffer containing phosphatase and protease inhibitors (Garcia-[…]., et al. (1998) Nature 392, 821-824), and processed for immunoblotting or immunoprecipitation in a octyl glucoside-containing buffer as described previously (Feron, O., et al. (1998) J. Biol. Chem. 273, 3125-3128). Caveolin, eNOS, and hsp90 antibodies were from BD Transduction Labs, Akt and phospho-Akt antibodies from BD PharMingen, CaM antibody from Santa Cruz, and phospho-eNOS antibody from NEB Cell Signaling Technology. Akt activity was measured using a non-radioactive immunoprecipitation kinase assay kit (NEB Cell Signaling Technology). […] First, extracts were immunoprecipitated with caveolin antibodies and the immuno-precipitation immunoblotted with eNOS antibodies (FIG. 10A, top). […] Experiments were then performed to determine the time course of hsp90 interaction with eNOS.

[3] = tested on: hsp90/eNOS interaction; test: hsp90/eNOS co-immunoprecipitation, VEGF-exposed HUVEC; assay type: cell-based, human
[4] = tested on: phospho-Ser1177-eNOS; test: phospho-Ser1177-eNOS immunoblot, VEGF-exposed HUVEC; assay type: cell-based, human
[5] = tested on: phospho-Ser473-Akt; test: phospho-Ser473-Akt immunoblot, VEGF-exposed HUVEC; assay type: cell-based, human
[6] = tested on: Akt/eNOS interaction; test: Akt/eNOS co-immunoprecipitation, VEGF-exposed HUVEC; assay type: cell-based, human
Description: Immunoprecipitation, Immunoblotting, and Kinase Assay was performed as follows: EC were homogenized in a buffer containing phosphatase and protease inhibitors (Garcia-[…] ., et al. (1998) Nature 392, 821-824), and processed for immunoblotting or immunoprecipitation in a octyl glucoside-containing buffer as described previously (Feron, O., et al. (1998) J. Biol. Chem. 273, 3125-3128). Caveolin, eNOS, and hsp90 antibodies were from BD Transduction Labs, Akt and phospho-Akt antibodies from BD PharMingen, CaM antibody from Santa Cruz, and phospho-eNOS antibody from NEB Cell Signaling Technology. Akt activity was measured using a non-radioactive immunoprecipitation kinase assay kit (NEB Cell Signaling Technology). It was further analyzed whether eNOS and Akt interact together in eNOS/Akt co-immunoprecipitation experiments. […] In an attempt to appreciate the proportion of eNOS involved in the geldanamycin-sensitive recruitment of Akt, the reverse co-immunoprecipitation assay was further developed: hsp90 and Akt antibodies were used to immunoprecipitate eNOS (which was detected by immunoblotting) and the supernatants of these immunoprecipitations were checked for residual eNOS presence; for this purpose, the immunoprecipitated supernatants were submitted to a second immunoprecipitation with eNOS antibodies.

[7] = tested on: [Ca^2+]i; test: Fura-2 measurement of [Ca2+]i in VEGF-exposed EC; assay type: cell-based, human
Description: Alternating wavelength excitation of 340 and 380 nm was provided by a motorized filter wheel. The image pairs monitored by the Ionoptix Myocam camera were processed by the IonWizard software (Ionoptix, Milton, Mass.) and are presented as the fluorescence ratio (340/380 nm), a direct index to the [Ca^2+]i. In some experiments, Fura-2-loaded cells were preincubated with the intracellular calcium chelator BAPTA/AM (20 μM).

[8] = tested on: eNOS; test: nitrite (NO2-) detection, VEGF-stimulated EC; assay type: cell-based, human
Description: Nitrite was Detected as follows: Quantitative analysis of nitrite (NO2^−) was used as an index of NO production. Briefly, aliquots of the medium bathing intact EC were collected at the time intervals corresponding to either 0-2 or 5-30 min of VEGF exposure. For the latter period, the medium bathing the VEGF-stimulated cells for the first 5 min was discarded and replaced by fresh VEGF-containing medium for the next 25 min. […] Data are normalized for the amount of protein in the dish, and are presented for convenience as mean+/−S.E. Statistical analyses were made using Student's t test or one-way ANOVA where appropriate.

[9] = tested on: CaM/eNOS interaction; test: CaM/eNOS co-immunoprecipitation, EC; assay type: cell-based, human
Description: Immunoprecipitation, Immunoblotting, and Kinase Assay was performed as follows: EC were homogenized in a buffer containing phosphatase and protease inhibitors (Garcia-Cardena, G., et al. (1998) Nature 392, 821-824), and processed for immunoblotting or immunoprecipitation in a octyl glucoside-containing buffer as described previously (Feron, O., et al. (1998) J. Biol. Chem. 273, 3125-3128). Caveolin, eNOS, and hsp90 antibodies were from BD Transduction Labs, Akt and phospho-Akt antibodies from BD PharMingen, CaM antibody from Santa Cruz, and phospho-eNOS antibody from NEB Cell Signaling Technology. Akt activity was measured using a non-radioactive immunoprecipitation kinase assay kit (NEB Cell Signaling Technology).
In order to further dissect the calcium dependence of the Akt-mediated phosphorylation of eNOS, the eNOS/CaM association was examined after 2 and 30 min VEGF exposure, i.e. at the maximum of the calcium transient and after the return of [Ca^2+]i to its basal level, respectively.

[10] = tested on: wild-type eNOS; test: nitrite production in transfected COS cells, wild-type eNOS; assay type: cell-based
[11] = tested on: caveolin; test: caveolin immunoblot, AoECs; assay type: cell-based, rat; settings: AoECs; culture medium supplemented with mevalonate
Source text: (§1) Therefore, the effects of statin exposure on the absolute amounts of caveolin in AoECs and CMECs was examined.

[12] = tested on: caveolin; test: caveolin immunoblot, AECs; assay type: cell-based, Bovine; settings: AECs; culture medium supplemented with mevalonate
Source text: as §1

[13] = tested on: phospho-Ser1177-eNOS; test: phospho-Ser1177-eNOS immunoblot, statin-exposed HUVECs; settings: for effect on statin-induced phosphorylation of eNOS: atorvastatin 1 μmol/L, LY294002 10 μmol/L, geldanamycin 1 μg/mL, mevalonate 1 mmol/L, BAPTA-AM 20 μmol/L, CSD peptide loading
[14] = tested on: eNOS/hsp90 interaction; test: eNOS/hsp90 co-immunoprecipitation, statin-exposed HUVECs; settings: mevalonate 1 mmol/L, BAPTA-AM 20 μmol/L, CSD peptide loading
[15] = tested on: phospho-Akt/eNOS interaction; test: eNOS/phospho-Akt co-immunoprecipitation, statin-exposed HUVECs; settings: co-IP
[16] = tested on: CMECs; test: angiogenesis assay on Matrigel, CMECs; assay type: cell-based, Mouse; settings: CMECs; L-NAME 5 mmol/L coincubation; geldanamycin 1 μg/mL 30-minute preincubation
Description: (§2) Tube formation was observed using an inverted phase-contrast microscope (Zeiss Axiovert 25), and images were captured with a videographic system (Pixera Pro). The tube formation index was determined by measuring the length of tubes in random fields from each well using the Image J program. Statistical analyses were made using the Student t test or one-way ANOVA where appropriate.

[17] = tested on: AoECs; test: aortic ring culture in Matrigel, AoEC network organization; assay type: cell-based, rat; settings: L-NAME added at the time of serum deprivation
Description: as §2, with “Cultures of AoECs and CoMECs organized in a network were then challenged at day 5 by incubation under serum-free conditions for 24 to 48 hours with or without some of the drugs mentioned above. […] Tube” for “Tube”

[18] = tested on: HUVECs; test: angiogenesis assay on Matrigel, HUVECs; assay type: cell-based, human; settings: HUVECs on Matrigel, atorvastatin
Description: as §2
Transfection and peptide loading was performed by reversible permeabilization: HUVECs were transfected with the hsp90 cDNA (a gift from Dr W. C. Sessa, Yale University, New Haven, Conn.) using Lipofectamine (Invitrogen) according to the manufacturer's protocol; an irrelevant plasmid encoding β-galactosidase was used as a control to obtain identical amounts of transfected DNA in each condition. HUVECs were also reversibly permeabilized, as previously reported (Feron et al. J Biol. Chem. 1998; 273:30249-30254), to introduce synthetic peptides derived from the caveolin scaffolding domain (CSD).

[19] = tested on: phospho-Ser473-Akt; test: phospho-Ser473-Akt immunoblot, statin-exposed HUVECs; settings: for (basal) level of Akt phosphorylation: phosphatase inhibitor
[20] = tested on: phospho-Akt; test: phospho-Akt immunoblot, insulin-stimulated cardiac myocytes; assay type: cell-based; settings: neonatal mouse cardiac myocytes
Description: (§3) Cell Culture was performed as follows: Freshly isolated human umbilical vein EC (HUVEC) were cultured to confluence in 100-mm dishes in a 2:1 mixture of M199/endothelial cell basal medium containing 10% serum; control experiments were also performed with myocytes isolated from neonatal mice as previously detailed (Feron, et al. (1998) J. Biol. Chem. 273, 30249-30254) and plated at 5×10^5 cells/ml. Serum-starved EC and myocytes were exposed for the indicated periods of time to VEGF (50 ng/ml) and insulin (12.5 milliunits/ml), respectively, in the presence or absence of various pharmacological modulators (30-60 min preincubation with 1 μg/ml geldanamycin (Invitrogen Life Technolo-gies) or 10 μM LY294002 (Sigma)).
(§4) Accordingly, neonatal mouse cardiac myocytes were exposed to insulin (a known activator of Akt in myocytes) for 5 min with or without geldanamycin and examined the phosphorylation status of Akt and eNOS. […] Myocytes show native expression of GSK-3 and were used to determine whether geldanamycin could influence the phosphorylation of this other Akt substrate.

[21] = tested on: phospho-eNOS; test: phospho-eNOS immunoblot, insulin-stimulated cardiac myocytes; assay type: cell-based; settings: neonatal mouse cardiac myocytes
Description: as §3, §4

[22] = tested on: phospho-GSK-3; test: phospho-GSK-3 immunoblot, insulin-stimulated cardiac myocytes; assay type: cell-based; settings: neonatal mouse cardiac myocytes
Description: as §3, §4

[23] = nitrite production normalized per min
[24] = eNOS antibodies, geldanamycin 1 μg/ml 30 min, BAPTA

Molecule: CC(=O)N[C@@H](C(=O)O)C(C)(C)SN=O (racemic) [SNAP]
- effect on the anti-angiogenic effect observed in caveolin-overexpressing cells ([1]; caveolin-overexpressing cells): correct this anti-angiogenic effect
- endothelial tube formation ([1]; non-transfected cells): accelerated the endothelial tube formation

Molecule: VEGF
- time to complete dissociation of eNOS from caveolin ([2]; VEGF 50 ng/ml): ≤ 2 min
- time for which dissociation was maintained ([2]; in the presence of VEGF): at least 30 min
- proportion of eNOS pool engaged in hsp90 interaction ([3]; 5 min VEGF, reverse immunoprecipitation with hsp90 antibodies): around half of the total eNOS pool
- cell exposure needed for hsp90 co-immunoprecipitation with eNOS ([3]; VEGF 50 ng/ml): ≥ 2 min
- time to maximal eNOS phosphorylation ([4]; VEGF exposure): at least 5 min
- time at which Akt phosphorylation was already observed ([5]; VEGF exposure): 30 s
- proportion of eNOS pool engaged in Akt interaction ([6]; 5 min VEGF, reverse immunoprecipitation with Akt antibodies): around half of the total eNOS pool
- time from which Akt association to eNOS could be detected ([6]; VEGF stimulation): ≥ 2 min
- time to peak of calcium transient ([7]; VEGF exposure): 1 min
- rate of NO2- produced in the first 5-min interval versus the following 30 min ([8]; after VEGF stimulation, preliminary experiments): 2-3 fold
- absolute amount of NO2^− produced in the 5-30-min period versus the first 2-min VEGF exposure ([8]; control conditions): 5.5 fold
- amounts of NO2^− in the 55-60-min interval ([8]; following VEGF stimulation): below the detection level
- persistence of the CaM/eNOS association ([9]; VEGF): at least 30 min
- time at which CaM could be detected in the eNOS immune complex ([9]; after VEGF stimulation): 2 min

Molecule: COC1=C2C[C@@H](C)C[C@H](OC)[C@H](O)[C@@H](C)/C=C(\C)[C@H](OC(N)=O)[C@@H](OC)/C=C\C=C(/C)C(=O)NC(=CC1=O)C2=O [geldanamycin]
- effect on VEGF-induced caveolin/eNOS dissociation [2]: no significant effect
- effect on early VEGF-induced eNOS activation (0-2 min) [8, 23]: no significant effect
- part of the recombinant hsp90- and hsp90/Akt-mediated increase in NO production blocked ([10]; COS cells, preincubation): 70-95%
- part of the Akt-dependent increase in nitrite production blocked ([10]; WT-eNOS COS cells pretreated for 30 min): around 70%

Molecule: CNc1ccc2oc(C[C@H]3O[C@@]4(CC[C@H]3C)O[C@H]([C@H](C)C(=O)c3ccc[nH]3)[C@H](C)C[C@H]4C)nc2c1C(=O)O [A23187]
- early NO2^− production (0-2 min) relative to the level obtained with VEGF ([8]; 1 μM A23187 pulse for 2 min): ~3 fold
- long-term NO2^− production compared with VEGF-exposed cells ([8]; 1 μM A23187 pulse for 2 min, then Ca^2+-free medium): significantly lower
- eNOS/CaM association ([9]; short exposure to A23187): led to the early association between eNOS and CaM

Molecule: CC(O)(CCO)CC(=O)O (stereo not shown) [mevalonate]
- effect on statin-induced reduction in caveolin abundance [11]: blocked the statin-induced reduction in caveolin abundance
- effect on statin-induced reduction in caveolin abundance [12]: blocked the statin-induced reduction in caveolin abundance
- effect on statin-induced phosphorylation of eNOS [13]: reverse the stimulatory effect
- effect on atorvastatin-stimulated eNOS/hsp90 interaction [14]: reverse the stimulatory effect
- effect on phospho-Akt/eNOS interaction upon statin [15]: reverse the stimulatory effect

Molecule: COC(=O)[C@@H](N)CCCNC(=N)N[N+](=O)[O-] [L-NAME, N^G-nitro-L-arginine methyl ester]
- effect on atorvastatin-induced tube formation [16]: almost completely blocked
- effect on statin stabilisation of the network [17]: abrogated the beneficial effects of statin pretreatment

Molecule: C=C1[C@@H](O)[C@@H]2O[C@]3(CC[C@H](/C=C/[C@@H](C)[C@@H]4CC(C)=C[C@@]5(O[C@H](C[C@@](C)(O)C(=O)O)CC[C@H]5O)O4)O3)CC[C@H]2O[C@@H]1[C@@H](O)C[C@H](C)[C@H]1O[C@@]2(CCCCO2)CC[C@H]1C [okadaic acid]
- effect on statin-induced tube formation [18]: stimulated basal and statin-induced tube formation
- (basal) level of Akt phosphorylation [19]: dramatically increased
- increase of statin-induced phosphorylation of eNOS in the presence of okadaic acid ([13]; okadaic acid versus okadaic acid+statin, 100 nmol/L): ~3 fold
- effect on phospho-Akt/eNOS interaction upon statin [15]: promoted

Molecule: insulin: a known activator of Akt in myocytes
- Akt phosphorylation [20]: stimulatory effect
- eNOS phosphorylation [21]: stimulatory effect
- GSK-3 phosphorylation [22]: stimulatory effect

Molecule: calyculin
- (basal) level of Akt phosphorylation [19]: stimulated Akt phosphorylation

Molecule: CC(=O)OCOC(=O)CN(CC(=O)OCOC(C)=O)c1ccccc1OCCOc1ccccc1N(CC(=O)OCOC(C)=O)CC(=O)OCOC(C)=O [BAPTA-AM]
- effect on VEGF-induced caveolin/eNOS dissociation [2]: complete inhibition
- effect on VEGF-induced hsp90/eNOS co-immunoprecipitation [3, 24]: completely prevented
- effect on VEGF-induced eNOS phosphorylation ([4]; LY294002 10 μM 1-h preincubation, geldanamycin 1 μg/ml, BAPTA-AM 20 μM): prevented
- effect on VEGF-induced Akt phosphorylation ([5]; LY294002 10 μM 1-h preincubation, geldanamycin 1 μg/ml, BAPTA): not altered
- effect on VEGF-induced Akt/eNOS co-immunoprecipitation [6, 24]: prevented
- effect on VEGF-evoked calcium transient ([7]; 20 μM BAPTA-AM): completely abrogated
- effect on the basal level of [Ca^2+]i ([7]; 20 μM BAPTA-AM): no effect
- level of eNOS activation for the 5-30-min period ([8]; BAPTA added after the early phase (at t=5 min), versus vehicle): no significant reduction
- effect on early VEGF-induced eNOS activation (0-2 min) [8, 23]: sufficient to block
- effect on late VEGF-induced eNOS activation (5-30 min) [8, 23]: sufficient to block
- effect on VEGF-induced CaM/eNOS interaction ([9]; BAPTA pretreatment): completely abrogated
- effect on statin-induced phosphorylation of Akt ([19]; CSD peptide loading, BAPTA-AM added 30 minutes before statin): blocked
- effect on statin-induced phosphorylation of eNOS [13]: abrogated
- effect on atorvastatin-stimulated eNOS/hsp90 interaction [14]: abrogated
